Data published in ChEMBL document CHEMBL1201862, “PubChem BioAssay data set” (2004).
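Tested at 5 concentrations; 48 h exposure; 96-well plates; endpoints linearly interpolated, else capped at highest concentration. GI50 is the concentration that inhibits growth by half.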 The source made the active and inactive calls. Rule as the data show it: active = GI50 up to about 1.1 µM and inactive = higher.

Experiments:
Experiment in all cases: NCI tumour cell line growth inhibition, 48 h
ACHN = test system: ACHN
PC-3 = test system: PC-3
LOX IMVI = test system: LOX IMVI
OVCAR-8 = test system: OVCAR-8
SW-620 = test system: SW-620
OVCAR-4 = test system: OVCAR-4
SF-539 = test system: SF-539
SNB-19 = test system: SNB-19
BT-549 = test system: BT-549
SK-MEL-28 = test system: SK-MEL-28
HL-60 = test system: HL-60
SK-OV-3 = test system: SK-OV-3
MOLT-4 = test system: MOLT-4
SK-MEL-5 = test system: SK-MEL-5
MDA-MB-231 = test system: MDA-MB-231
786-0 = test system: 786-0
M14 = test system: M14
HT-29 = test system: HT-29
RPMI-8226 = test system: RPMI-8226

Measured: GI50

C=CC1(C)CCC2C(=CCC3C2(C)CC(O)C(O)C3(C)COC2OC(CO)C(O)C(O)C2O)C1 (stereo not given)
inactive: ACHN > 100 µM | PC-3 > 100 µM | LOX IMVI > 100 µM | OVCAR-8 > 100 µM | SW-620 > 100 µM | OVCAR-4 > 100 µM | SF-539 > 100 µM | SNB-19 44.8 µM | BT-549 > 100 µM | SK-MEL-28 > 100 µM | HL-60 57.9 µM | SK-OV-3 > 100 µM | MOLT-4 68.1 µM | SK-MEL-5 > 100 µM | MDA-MB-231 > 100 µM | 786-0 > 100 µM | M14 > 100 µM | HT-29 > 100 µM

O=C(NC(=S)Nc1ccc(Br)cc1)c1ccc2c(c1)Sc1ccccc1S2
inactive: ACHN 18.2 µM | PC-3 47.8 µM | LOX IMVI 23.3 µM | OVCAR-8 17.3 µM | SW-620 31.6 µM | OVCAR-4 19.2 µM | SF-539 24.3 µM | SNB-19 25.2 µM | BT-549 39.1 µM | SK-MEL-28 78.7 µM | HL-60 17.5 µM | SK-OV-3 16.7 µM | MOLT-4 7.53 µM | SK-MEL-5 51.1 µM | MDA-MB-231 17.6 µM | 786-0 16.2 µM | M14 12.4 µM | HT-29 33.6 µM

O=C1NC(=O)C(C(c2ccc([N+](=O)[O-])cc2)C2C(=O)NC(=O)NC2=O)C(=O)N1
inactive: ACHN > 100 µM | PC-3 > 100 µM | LOX IMVI > 100 µM | OVCAR-8 > 100 µM | SW-620 > 100 µM | OVCAR-4 > 100 µM | SNB-19 > 100 µM | BT-549 > 100 µM | SK-MEL-28 > 100 µM | HL-60 > 100 µM | MOLT-4 > 100 µM | SK-MEL-5 > 100 µM | MDA-MB-231 > 100 µM | 786-0 > 100 µM | M14 > 100 µM | RPMI-8226 > 100 µM | HT-29 > 100 µM

CC1=C(C)C(=O)C(C2=CC(=O)C=CC2=O)=C(C2=CC(=O)C=CC2=O)C1=O
inactive: ACHN 59.4 µM | PC-3 62.8 µM | LOX IMVI 26.7 µM | OVCAR-8 36.6 µM | SW-620 28.4 µM | OVCAR-4 20.6 µM | SF-539 27.3 µM | SNB-19 > 100 µM | BT-549 86.9 µM | SK-MEL-28 > 74 µM | HL-60 14.9 µM | SK-OV-3 > 100 µM | MOLT-4 15.5 µM | SK-MEL-5 21.3 µM | MDA-MB-231 18.4 µM | 786-0 76.7 µM | M14 > 76.9 µM | HT-29 > 72.6 µM

CN1CCc2[nH]nc(-c3n[nH]c4c3CN(C)CC4)c2C1
inactive: ACHN > 100 µM | PC-3 > 100 µM | LOX IMVI > 100 µM | OVCAR-8 > 100 µM | SW-620 > 100 µM | OVCAR-4 > 100 µM | SF-539 > 100 µM | SNB-19 > 100 µM | BT-549 > 100 µM | SK-MEL-28 44.9 µM | SK-OV-3 > 100 µM | MOLT-4 > 100 µM | SK-MEL-5 > 100 µM | MDA-MB-231 > 100 µM | 786-0 > 100 µM | M14 > 100 µM | RPMI-8226 > 100 µM | HT-29 > 100 µM

CC(=O)Nc1ccc(OC2=CCN(C)CC2)cc1
inactive: ACHN > 100 µM | PC-3 > 100 µM | LOX IMVI > 100 µM | OVCAR-8 > 100 µM | SW-620 > 100 µM | OVCAR-4 > 100 µM | SNB-19 > 100 µM | BT-549 > 100 µM | SK-MEL-28 > 100 µM | HL-60 > 100 µM | SK-OV-3 > 100 µM | MOLT-4 > 100 µM | SK-MEL-5 > 100 µM | MDA-MB-231 > 100 µM | 786-0 > 100 µM | M14 > 100 µM | RPMI-8226 > 100 µM | HT-29 > 100 µM

CCN(CC)CCNC(=O)c1ccc(I)cc1
inactive: ACHN > 100 µM | PC-3 > 100 µM | LOX IMVI > 100 µM | OVCAR-8 > 100 µM | SW-620 > 100 µM | OVCAR-4 > 100 µM | SF-539 > 100 µM | SNB-19 > 100 µM | BT-549 > 100 µM | SK-MEL-28 > 100 µM | SK-OV-3 > 100 µM | MOLT-4 > 100 µM | SK-MEL-5 28.4 µM | MDA-MB-231 > 100 µM | 786-0 > 100 µM | M14 > 100 µM | RPMI-8226 > 100 µM | HT-29 33.3 µM

C=CCc1cccc2cc(C(=O)NC3CCCCC3)c(=N)oc12
inactive: ACHN 11.1 µM | PC-3 16.1 µM | LOX IMVI 15.4 µM | OVCAR-8 32.6 µM | SW-620 33.4 µM | OVCAR-4 20.9 µM | SNB-19 21.4 µM | BT-549 33.7 µM | SK-MEL-28 17.3 µM | HL-60 41 µM | SK-OV-3 24 µM | MOLT-4 > 100 µM | SK-MEL-5 14 µM | MDA-MB-231 16 µM | 786-0 14.5 µM | M14 18 µM | RPMI-8226 45.6 µM | HT-29 27.2 µM

O=[N+]([O-])c1cccc2nnccc12
inactive: ACHN 11.7 µM | PC-3 31.8 µM | OVCAR-8 31.9 µM | SW-620 42 µM | SF-539 48 µM | SNB-19 35.9 µM | BT-549 29.6 µM | HL-60 2.5 µM | SK-OV-3 93.3 µM | MOLT-4 28.4 µM | SK-MEL-5 14.1 µM | MDA-MB-231 > 10 µM | 786-0 12.6 µM | M14 24.3 µM | RPMI-8226 22 µM | HT-29 20.3 µM

CC(C)(C)OC(=O)NCCCCC(N)NC(=O)c1ccccc1 (stereo not given)
inactive: ACHN > 100 µM | PC-3 > 100 µM | LOX IMVI > 100 µM | OVCAR-8 > 100 µM | SW-620 > 100 µM | OVCAR-4 > 100 µM | SF-539 > 100 µM | SNB-19 > 100 µM | BT-549 > 100 µM | SK-MEL-28 > 100 µM | SK-OV-3 > 100 µM | MOLT-4 > 100 µM | SK-MEL-5 > 100 µM | MDA-MB-231 > 100 µM | 786-0 > 100 µM | M14 > 100 µM | RPMI-8226 > 100 µM | HT-29 > 100 µM

CN(C)/C=[N+]1/[C@@H](Cc2ccccc2)C(=O)O[B-]1(F)c1ccccc1 (stereo not given in full)
inactive: ACHN > 100 µM | PC-3 > 100 µM | LOX IMVI > 100 µM | OVCAR-8 > 100 µM | SW-620 > 100 µM | OVCAR-4 > 100 µM | SNB-19 > 100 µM | BT-549 > 100 µM | SK-MEL-28 > 100 µM | HL-60 > 100 µM | SK-OV-3 > 100 µM | MOLT-4 > 100 µM | SK-MEL-5 > 100 µM | MDA-MB-231 > 100 µM | 786-0 > 100 µM | M14 > 100 µM | RPMI-8226 > 100 µM | HT-29 > 100 µM
